ChEMBL document CHEMBL4665632, “Design, synthesis and biological evaluation of pyridone-aminal derivatives as MNK1/2 inhibitors” (Bioorg Med Chem, 2019)

Experiments:
[1] = biological target: T1, MAP kinase-interacting serine/threonine-protein kinase 1 (Homo sapiens, UniProt Q9BUB5); experiment: (§1) Inhibition of recombinant human N-terminal DYKDDDDK-tagged MNK1(1 to 424 residues) expressed in baculovirus expression system using TATKSGSTTKNR as substrate preincubated for 10 mins followed by ATP addition and measured after 40 mins by luminescence based assay
Target sequence in this assay (Q9BUB5 whole entry, the tested form may be a part): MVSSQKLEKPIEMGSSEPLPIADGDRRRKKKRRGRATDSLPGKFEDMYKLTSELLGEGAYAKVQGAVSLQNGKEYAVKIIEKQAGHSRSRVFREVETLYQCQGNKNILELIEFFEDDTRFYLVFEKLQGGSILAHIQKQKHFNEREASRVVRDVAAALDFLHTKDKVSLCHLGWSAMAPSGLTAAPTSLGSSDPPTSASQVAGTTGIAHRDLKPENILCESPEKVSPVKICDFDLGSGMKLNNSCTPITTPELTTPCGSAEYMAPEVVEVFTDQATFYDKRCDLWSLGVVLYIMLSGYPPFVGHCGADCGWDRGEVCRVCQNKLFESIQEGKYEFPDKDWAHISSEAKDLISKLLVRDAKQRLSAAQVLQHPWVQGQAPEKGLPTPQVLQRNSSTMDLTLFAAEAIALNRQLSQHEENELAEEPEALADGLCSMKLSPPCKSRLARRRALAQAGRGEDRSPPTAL

[2] = biological target: T2, MAP kinase-interacting serine/threonine-protein kinase 2 (Homo sapiens, UniProt Q9HBH9); experiment: (§2) Inhibition of recombinant human N-terminal GST-tagged MNK2 (1 to 465 residues) expressed in baculovirus expression system using TATKSGSTTKNR as substrate preincubated for 10 mins followed by ATP addition and measured after 40 mins by luminescence based assay
Target sequence in this assay (Q9HBH9 whole entry, the tested form may be a part): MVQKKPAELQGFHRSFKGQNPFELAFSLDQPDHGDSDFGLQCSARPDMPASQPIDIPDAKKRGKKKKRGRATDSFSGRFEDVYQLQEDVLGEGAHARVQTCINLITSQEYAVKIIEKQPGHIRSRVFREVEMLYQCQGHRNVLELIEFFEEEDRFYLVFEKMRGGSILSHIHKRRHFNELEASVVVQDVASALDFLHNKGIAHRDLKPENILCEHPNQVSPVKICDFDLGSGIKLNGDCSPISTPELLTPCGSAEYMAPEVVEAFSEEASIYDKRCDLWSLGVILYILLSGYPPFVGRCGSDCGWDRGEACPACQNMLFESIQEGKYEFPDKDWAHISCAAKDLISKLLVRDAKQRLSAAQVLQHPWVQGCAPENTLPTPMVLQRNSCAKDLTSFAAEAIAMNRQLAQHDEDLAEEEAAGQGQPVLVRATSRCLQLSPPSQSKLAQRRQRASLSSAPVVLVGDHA

[3] = biological target: T2, MAP kinase-interacting serine/threonine-protein kinase 2; experiment: Inhibition of MNK2 (unknown origin) at 100 nM incubated for 60 mins by HTRF assay
Target sequence in this assay (Q9HBH9 whole entry, looked up, the tested form may be a part): as the sequence (Q9HBH9 whole entry, the tested form may be a part) above

[4] = biological target: T1, MAP kinase-interacting serine/threonine-protein kinase 1; experiment: Inhibition of MNK1 (unknown origin) at 100 nM incubated for 60 mins by HTRF assay
Target sequence in this assay (Q9BUB5 whole entry, looked up, the tested form may be a part): as the sequence (Q9BUB5 whole entry, the tested form may be a part) above

HCT-116 = experiment: Antiproliferative activity against human HCT-116 cells assessed as reduction in cell viability at 20 uM incubated for 72 hrs by MTT assay relative to control; format: functional
MDA-MB-435 = experiment: Antiproliferative activity against human MDA-MB-435 cells assessed as reduction in cell viability at 20 uM incubated for 72 hrs by MTT assay relative to control; format: functional
A549 = experiment: Antiproliferative activity against human A549 cells assessed as reduction in cell viability incubated at 20 uM for 72 hrs by MTT assay relative to control; format: functional
TMD8 = experiment: Antiproliferative activity against human TMD8 cells assessed as reduction in cell viability incubated for 72 hrs by MTT assay; format: functional, cell-based; conditions: TMD8, 72 h
[5] = Antiproliferative activity against […] cells assessed as reduction in cell viability at 20 uM incubated for 72 hrs by MTT assay relative to control; format: functional, Mus musculus
K562 = experiment: Antiproliferative activity against human K562 cells assessed as reduction in cell viability incubated for 72 hrs by MTT assay; format: functional, cell-based; conditions: K562, 72 h
MV4-11 = experiment: Antiproliferative activity against human MV4-11 cells assessed as reduction in cell viability incubated for 72 hrs by MTT assay; format: functional, cell-based; conditions: MV4-11, 72 h
[6] = biological target: T2, MAP kinase-interacting serine/threonine-protein kinase 2; experiment: as §2, with “Potency index, ratio of IC50 of eFT508 to IC50 of compound for inhibition” for “Inhibition”; conditions: time 50.0 min
Target sequence in this assay (Q9HBH9 whole entry, looked up, the tested form may be a part): as the sequence (Q9HBH9 whole entry, the tested form may be a part) above

[7] = biological target: T1, MAP kinase-interacting serine/threonine-protein kinase 1; experiment: as §1, with “Potency index, ratio of IC50 of eFT508 to IC50 of compound for inhibition” for “Inhibition”; conditions: time 50.0 min
Target sequence in this assay (Q9BUB5 whole entry, looked up, the tested form may be a part): as the sequence (Q9BUB5 whole entry, the tested form may be a part) above

[8] = Antitumor activity against […] cells xenografted in BALB/c mouse assessed as tumor growth inhibition at 20 mg/kg, ip administered for 14 days relative to control; format: functional; conditions: 336 h, time 14 day, read-out: TGI

Row | SMILES | IC50 [1] | IC50 [2] | inhibition [3] | inhibition [4] | inhibition at 20 µM (HCT-116) | inhibition at 20 µM (MDA-MB-435) | inhibition at 20 µM (A549) | IC50 (TMD8) | inhibition at 20 µM [5] | IC50 (K562) | IC50 (MV4-11) | Ratio IC50 [6] | Ratio IC50 [7] | inhibition in vivo at 20 mg/kg [8]
1 | Cc1cccnc1Nc1cc(C)c2n(c1=O)C1(CCCCC1)NC2=O | > 500 nM | > 500 nM | 23% | 17.8% |  |  |  |  |  |  |  |  |  | 
2 | Cc1cc(Nc2cc(N3CCNCC3)ncn2)c(=O)n2c1C(=O)NC21CCCCC1 | 20.7 nM | 18.3 nM | 87.7% | 66.5% | 59.9% | 35.2% | 24.6% | 1810 nM | 18.8% | 8780 nM | 11000 nM |  |  | 
3 | Cc1cc(Nc2cc(N3CCC(N)CC3)ncn2)c(=O)n2c1C(=O)NC21CCCCC1 | 125 nM | 82 nM | 64.3% | 62.7% | 46.8% | 42% | 50.1% | 9960 nM | 36.5% | 17700 nM | > 20000 nM |  |  | 
4 | Cc1cccc(Nc2cc(C)c3n(c2=O)C2(CCCCC2)NC3=O)n1 | > 500 nM | > 500 nM | 13.4% | 19.8% |  |  |  |  |  |  |  |  |  | 
5 | Cc1cc(Nc2cc(N3CCOCC3)ncn2)c(=O)n2c1C(=O)NC21CCCCC1 | > 500 nM | 454 nM | 35.5% | 21.4% |  |  |  |  |  |  |  |  |  | 
6 | Cc1cc(Nc2ccnnc2)c(=O)n2c1C(=O)NC21CCCCC1 | 160 nM | 162 nM | 70.3% | 59.8% | 22.7% | 33% | 14% | 8780 nM | 24.3% | > 20000 nM | 13300 nM |  |  | 
7 | Cc1cc(Nc2cn(C)nc2C#N)c(=O)n2c1C(=O)NC21CCCCC1 | > 500 nM | > 500 nM | 11.9% | 10.5% |  |  |  |  |  |  |  |  |  | 
8 | Cc1cc(Nc2ncccn2)c(=O)n2c1C(=O)NC21CCCCC1 | > 500 nM | > 500 nM | 18.9% | 22.4% |  |  |  |  |  |  |  |  |  | 
9 | Cc1cc(Nc2cnccn2)c(=O)n2c1C(=O)NC21CCCCC1 | 466 nM | > 500 nM | 36.8% | 47.6% |  |  |  |  |  |  |  |  |  | 
10 | Cc1cc(Nc2cc(N)ccn2)c(=O)n2c1C(=O)NC21CCCCC1 | > 500 nM | > 500 nM | 30.8% | 43.4% |  |  |  |  |  |  |  |  |  | 
11 | Cc1cc(Nc2cc(N3CCN(CCN(C)C)CC3)ncn2)c(=O)n2c1C(=O)NC21CCCCC1 | 8.7 nM | 7.5 nM | 89% | 77.2% | 30.5% | 35.2% | 48.4% | 1920 nM | 40.5% | 13000 nM | 9640 nM | 2 | 2 | 
12 | Cc1cc(Nc2cccnn2)c(=O)n2c1C(=O)NC21CCCCC1 | > 500 nM | > 500 nM | 23.9% | 25.9% |  |  |  |  |  |  |  |  |  | 
13 | Cc1cc(Nc2ccnc(N)n2)c(=O)n2c1C(=O)NC21CCCCC1 | 390 nM | 228 nM | 66.3% | 52.7% | 30.7% | 25.8% | 22.6% | > 20000 nM | 35% | > 20000 nM | > 20000 nM |  |  | 
14 | Cc1cc(Nc2ccncn2)c(=O)n2c1C(=O)NC21CCCCC1 | 10.5 nM | 8.3 nM | 97.3% | 82.2% | 40.1% | 52.4% | 40.5% | 6220 nM | 48.3% | 14200 nM | > 20000 nM |  |  | 
15 | Cc1cc(Nc2ccccn2)c(=O)n2c1C(=O)NC21CCCCC1 | > 500 nM | > 500 nM | 16.2% | 19.5% |  |  |  |  |  |  |  |  |  | 
16 | CC(=O)N1CCN(c2cc(Nc3cc(C)c4n(c3=O)C3(CCCCC3)NC4=O)ncn2)CC1 | 68.9 nM | 63.8 nM | 86.9% | 73.3% | 28.9% | 16% | 28.8% | 8330 nM | 46.7% | > 20000 nM | > 20000 nM |  |  | 
17 | Cc1cc(Nc2ccncc2)c(=O)n2c1C(=O)NC21CCCCC1 | 240 nM | 138 nM | 88.3% | 60.7% | 12.9% | 48.6% | 23.1% | > 20000 nM | 24% | > 20000 nM | > 20000 nM |  |  | 
18 | Cc1cc(Nc2cc(N3CCN(C)CC3)ncn2)c(=O)n2c1C(=O)NC21CCCCC1 | 51.2 nM | 42.1 nM | 66.8% | 54.4% | 65.2% | 44.3% | 39% | 4810 nM | 38.8% | 17900 nM | > 20000 nM |  |  | 
19 | Cc1cc(Nc2cccnc2)c(=O)n2c1C(=O)NC21CCCCC1 | > 500 nM | > 500 nM | 13.3% | 20.2% |  |  |  |  |  |  |  |  |  | 
20 | Cc1cc(Nc2cc(N)ncn2)c(=O)n2c1C(=O)NC21CCCCC1 [TOMIVOSERTIB] |  |  | 98.8% | 87.8% | 52.7% | 49.2% | 40.6% | 2530 nM | 43.1% | 13500 nM | 14500 nM |  |  | 59%
21 | Cc1cc(Nc2cc(N3CCCCC3)ncn2)c(=O)n2c1C(=O)NC21CCCCC1 | 476 nM | 452 nM | 50.3% | 37.5% |  |  |  |  |  |  |  |  |  | 
22 | Cc1cc(Nc2cn(C)nc2N)c(=O)n2c1C(=O)NC21CCCCC1 | 479 nM | 389 nM | 55.4% | 53.2% |  |  |  |  |  |  |  |  |  | 
23 | Cc1cc(Nc2cn(C)nc2C(F)F)c(=O)n2c1C(=O)NC21CCCCC1 | > 500 nM | > 500 nM | 14.6% | 25.4% |  |  |  |  |  |  |  |  |  | 
24 | Cc1cc(Nc2nccc(N)n2)c(=O)n2c1C(=O)NC21CCCCC1 | > 500 nM | > 500 nM | 30.2% | 33.2% |  |  |  |  |  |  |  |  |  | 
25 | Cc1cc(Nc2cc(NC3CCNCC3)ncn2)c(=O)n2c1C(=O)NC21CCCCC1 | 55.2 nM | 49.8 nM | 75.8% | 66.4% | 35.2% | 59.2% | 43.9% | 11000 nM | 18.5% | > 20000 nM | 18500 nM |  |  | 
26 | Cc1cc(Nc2ccnc(N)c2)c(=O)n2c1C(=O)NC21CCCCC1 | 52.3 nM | 48.2 nM | 70.5% | 72.5% | 42.2% | 37.7% | 21.5% | 11200 nM | 30.1% | > 20000 nM | > 20000 nM |  |  | 
27 | Cc1cc(Nc2cc(C)c3n(c2=O)C2(CCCCC2)NC3=O)ccn1 | 422 nM | 398 nM | 45.2% | 26.8% |  |  |  |  |  |  |  |  |  | 
28 | Cc1cc(Nc2cncc(N)n2)c(=O)n2c1C(=O)NC21CCCCC1 | > 500 nM | > 500 nM | 33.2% | 25.3% |  |  |  |  |  |  |  |  |  | 
